≈ marks a conversion by molar mass, not a printed value.
tested on: S. aureus 29213; experiment: Bacterial growth minimal inhibitory concentrations (microdilution in cation-adjusted Mueller-Hinton Broth, CLSI M7-A7); assay type: cell-based; conditions: Staphylococcus aureus, 29213, microdilution method
Description: Bacterial Growth Minimal Inhibitory Concentrations: Minimal inhibitory concentrations (MICs; mg/l) were determined in cation-adjusted Mueller-Hinton Broth by a microdilution method following the description given in “Methods for Dilution Antimicrobial Susceptibility Tests for Bacteria that Grow Aerobically”, Approved standard, 7th ed., Clinical and Laboratory Standards Institute (CLSI) Document M7-A7, Wayne, Pa., USA, 2006. All Example compounds were tested against several Gram positive and Gram negative bacteria.

Row | Structure (SMILES) | MIC [µg/mL]
1 | COc1ccc2ccc(=O)n(CCN3CC[C@@H]4CN(c5ccc6c(n5)NC(=O)CO6)C(=O)O[C@H]4C3)c2n1 (racemic) [Example 25, rac-(4aR*,8aR*)-7-[2-(7-methoxy-2-oxo-2H-[1,8]naphthyridin-1-yl)-ethyl]-3-(3-oxo-3,4-dihydro-2H-pyrido[3,2-b][1,4]oxazin-6-yl)-octahydro-pyrido[4,3-e][1,3]oxazin-2-one] | ≤ 0.031
2 | COc1ccc2ccc(=O)n(CCN3CC[C@@H]4CN(c5ccc6c(n5)NC(=O)CS6)C(=O)O[C@H]4C3)c2n1 (racemic) [Example 26, rac-(4aR*,8aR*)-7-[2-(7-methoxy-2-oxo-2H-[1,8]naphthyridin-1-yl)-ethyl]-3-(3-oxo-3,4-dihydro-2H-pyrido[3,2-b][1,4]thiazin-6-yl)-octahydro-pyrido[4,3-e][1,3]oxazin-2-one] | ≤ 0.031
3 | COc1ccc2ncc(F)c(CCN3CC[C@@H]4CN(c5cc6c(nn5)OCCS6)C(=O)O[C@H]4C3)c2n1 (racemic) [Example 27, rac-(4aR*,8aR*)-3-(6,7-dihydro-8-oxa-5-thia-1,2-diaza-naphthalen-3-yl)-7-[2-(3-fluoro-6-methoxy-[1,5]naphthyridin-4-yl)-ethyl]-octahydro-pyrido[4,3-e][1,3]oxazin-2-one] | ≤ 0.031
4 | COc1ccc2ncc(=O)n(CCN3CC[C@@H]4CN(c5cc6c(nn5)OCCS6)C(=O)O[C@H]4C3)c2n1 (racemic) [Example 28, rac-(4aR*,8aR*)-3-(6,7-dihydro-8-oxa-5-thia-1,2-diaza-naphthalen-3-yl)-7-[2-(6-methoxy-3-oxo-3H-pyrido[2,3-b]pyrazin-4-yl)-ethyl]-octahydro-pyrido[4,3-e][1,3]oxazin-2-one] | ≤ 0.031
5 | O=C1O[C@H]2CN(CC3Cn4c(=O)ccc5ncc(F)c3c54)CC[C@@H]2CN1c1ccc2c(c1)OCCO2 (mixture of isomers) [Example 30, (RS)-4-[(4aR*,8aR*)-3-(2,3-dihydro-benzo[1,4]dioxin-6-yl)-2-oxo-octahydro-pyrido[4,3-e][1,3]oxazin-7-ylmethyl]-3-fluoro-4,5-dihydro-pyrrolo[3,2,1-de][1,5]naphthyridin-7-one] | 0.5 (≈ 1.02 µM)
6 | COc1ccc2ccc(=O)n(CCN3CC[C@@H]4CN(c5ccc6c(c5)NC(=O)CS6)C(=O)O[C@H]4C3)c2n1 (racemic) [Example 31, rac-(4aR*,8aR*)-7-(2-(7-methoxy-2-oxo-1,8-naphthyridin-1(2H)-yl)ethyl)-3-(3-oxo-3,4-dihydro-2H-benzo[b][1,4]thiazin-6-yl)octahydro-2H-pyrido[4,3-e][1,3]oxazin-2-one] | ≤ 0.031
7 | COc1ccc2ncc(F)c(C(O)CN3CC[C@@H]4CN(c5ccc6c(c5)NC(=O)CO6)C(=O)O[C@H]4C3)c2n1 (mixture of isomers) [Example 32, (4aR*,8aR*)-7-((2RS)-2-(3-fluoro-6-methoxy-1,5-naphthyridin-4-yl)-2-hydroxyethyl)-3-(3-oxo-3,4-dihydro-2H-benzo[b][1,4]oxazin-6-yl)octahydro-2H-pyrido[4,3-e][1,3]oxazin-2-one] | 0.125 (≈ 0.239 µM)
8 | COc1ccc2ccc(=O)n(CCN3CC[C@@H]4CN(c5ccc6c(c5)NC(=O)CO6)C(=O)O[C@H]4C3)c2n1 (racemic) [Example 34, rac-(4aR*,8aR*)-7-(2-(7-methoxy-2-oxo-1,8-naphthyridin-1(2H)-yl)ethyl)-3-(3-oxo-3,4-dihydro-2H-benzo[b][1,4]oxazin-6-yl)octahydro-2H-pyrido[4,3-e][1,3]oxazin-2-one] | 0.25 (≈ 0.495 µM)
9 | O=C1O[C@H]2CN(C[C@H]3Cc4c(F)ccc5ccc(=O)n3c45)CC[C@@H]2CN1c1ccc2c(c1)OCCO2 (relative stereo) [Example 29, (R)-2-[(4aR*,8aR*)-3-(2,3-dihydro-benzo[1,4]dioxin-6-yl)-2-oxo-octahydro-pyrido[4,3-e][1,3]oxazin-7-ylmethyl]-9-fluoro-1,2-dihydro-pyrrolo[3,2,1-ij]quinolin-4-one] | 0.25 (≈ 0.509 µM)
10 | COc1ccc2ncc(F)c(CCN3CC[C@@H]4CN(c5ccc6c(c5)OCCO6)C(=O)O[C@H]4C3)c2n1 (single isomer, unassigned) [Example 1] | ≤ 0.031
11 | COc1ccc2ncc(F)c(CCN3CC[C@H]4CN(c5ccc6c(c5)OCCO6)C(=O)O[C@@H]4C3)c2n1 (single isomer, unassigned) [Example 2] | ≤ 0.031
12 | COc1ccc2ncc(F)c([C@H](O)CN3CC[C@H]4CN(c5ccc6c(c5)OCCO6)C(=O)O[C@@H]4C3)c2n1 (single isomer, unassigned) [Example 14] | ≤ 0.031
13 | COc1ccc2ncc(F)c([C@H](O)CN3CC[C@@H]4CN(c5ccc6c(c5)OCCO6)C(=O)O[C@H]4C3)c2n1 (single isomer, unassigned) [Example 15] | 0.063 (≈ 0.123 µM)
14 | COc1ccc2ncc(F)c(CCN3CC[C@@H]4CN(c5ccc6c(n5)NC(=O)CS6)C(=O)O[C@H]4C3)c2n1 (single isomer, unassigned) [Example 20] | ≤ 0.031
15 | COc1ccc2ncc(F)c(CCN3CC[C@H]4CN(c5ccc6c(n5)NC(=O)CS6)C(=O)O[C@@H]4C3)c2n1 (single isomer, unassigned) [Example 21] | ≤ 0.031

same assay, conditions: microdilution method

Row | Structure (SMILES) | MIC for S. aureus 29213 [mg/L]
16 | O=C1COc2ccc(N3C[C@H]4CCN(C[C@H]5Cc6c(F)ccc7ccc(=O)n5c67)C[C@@H]4OC3=O)nc2N1 (relative stereo) [Example 33, (4aR*,8aR*)-7-0(R)-9-fluoro-4-oxo-2,4-dihydro-1H-pyrrolo[3,2,1-ij]quinolin-2-yl)methyl)-3-(3-oxo-3,4-dihydro-2H-pyrido[3,2-b][1,4]oxazin-6-yl)octahydro-2H-pyrido[4,3-e][1,3]oxazin-2-one] | 0.125

Reference: patent US9029368B2, “3,7-disubstituted octahydro-2H-pyrido[4,3-E][1,3]oxazin-2-one antibiotics” (Actelion Pharmaceuticals Ltd., priority 2011, dated 2015)
